According to US9173891B2, “Treatment of ovarian cancer using an anticancer agent conjugated to an angiopep-2 analog” (Angiochem, Inc., priority 2009, dated 2015):

What was measured:
[1] = biological target: T1, LRP receptor (Rattus norvegicus, UniProt G3V928); test: In situ rat brain perfusion, uptake inhibition by LRP ligands or Angiopep peptides; format: in vivo; conditions: for brain uptake of an Angiopep conjugate: FIG. 6B
T1 construct: from tissue; host or cells: brain of male Sprague Dawley rats (in situ perfusion)
T1 sequence (G3V928 20-4545): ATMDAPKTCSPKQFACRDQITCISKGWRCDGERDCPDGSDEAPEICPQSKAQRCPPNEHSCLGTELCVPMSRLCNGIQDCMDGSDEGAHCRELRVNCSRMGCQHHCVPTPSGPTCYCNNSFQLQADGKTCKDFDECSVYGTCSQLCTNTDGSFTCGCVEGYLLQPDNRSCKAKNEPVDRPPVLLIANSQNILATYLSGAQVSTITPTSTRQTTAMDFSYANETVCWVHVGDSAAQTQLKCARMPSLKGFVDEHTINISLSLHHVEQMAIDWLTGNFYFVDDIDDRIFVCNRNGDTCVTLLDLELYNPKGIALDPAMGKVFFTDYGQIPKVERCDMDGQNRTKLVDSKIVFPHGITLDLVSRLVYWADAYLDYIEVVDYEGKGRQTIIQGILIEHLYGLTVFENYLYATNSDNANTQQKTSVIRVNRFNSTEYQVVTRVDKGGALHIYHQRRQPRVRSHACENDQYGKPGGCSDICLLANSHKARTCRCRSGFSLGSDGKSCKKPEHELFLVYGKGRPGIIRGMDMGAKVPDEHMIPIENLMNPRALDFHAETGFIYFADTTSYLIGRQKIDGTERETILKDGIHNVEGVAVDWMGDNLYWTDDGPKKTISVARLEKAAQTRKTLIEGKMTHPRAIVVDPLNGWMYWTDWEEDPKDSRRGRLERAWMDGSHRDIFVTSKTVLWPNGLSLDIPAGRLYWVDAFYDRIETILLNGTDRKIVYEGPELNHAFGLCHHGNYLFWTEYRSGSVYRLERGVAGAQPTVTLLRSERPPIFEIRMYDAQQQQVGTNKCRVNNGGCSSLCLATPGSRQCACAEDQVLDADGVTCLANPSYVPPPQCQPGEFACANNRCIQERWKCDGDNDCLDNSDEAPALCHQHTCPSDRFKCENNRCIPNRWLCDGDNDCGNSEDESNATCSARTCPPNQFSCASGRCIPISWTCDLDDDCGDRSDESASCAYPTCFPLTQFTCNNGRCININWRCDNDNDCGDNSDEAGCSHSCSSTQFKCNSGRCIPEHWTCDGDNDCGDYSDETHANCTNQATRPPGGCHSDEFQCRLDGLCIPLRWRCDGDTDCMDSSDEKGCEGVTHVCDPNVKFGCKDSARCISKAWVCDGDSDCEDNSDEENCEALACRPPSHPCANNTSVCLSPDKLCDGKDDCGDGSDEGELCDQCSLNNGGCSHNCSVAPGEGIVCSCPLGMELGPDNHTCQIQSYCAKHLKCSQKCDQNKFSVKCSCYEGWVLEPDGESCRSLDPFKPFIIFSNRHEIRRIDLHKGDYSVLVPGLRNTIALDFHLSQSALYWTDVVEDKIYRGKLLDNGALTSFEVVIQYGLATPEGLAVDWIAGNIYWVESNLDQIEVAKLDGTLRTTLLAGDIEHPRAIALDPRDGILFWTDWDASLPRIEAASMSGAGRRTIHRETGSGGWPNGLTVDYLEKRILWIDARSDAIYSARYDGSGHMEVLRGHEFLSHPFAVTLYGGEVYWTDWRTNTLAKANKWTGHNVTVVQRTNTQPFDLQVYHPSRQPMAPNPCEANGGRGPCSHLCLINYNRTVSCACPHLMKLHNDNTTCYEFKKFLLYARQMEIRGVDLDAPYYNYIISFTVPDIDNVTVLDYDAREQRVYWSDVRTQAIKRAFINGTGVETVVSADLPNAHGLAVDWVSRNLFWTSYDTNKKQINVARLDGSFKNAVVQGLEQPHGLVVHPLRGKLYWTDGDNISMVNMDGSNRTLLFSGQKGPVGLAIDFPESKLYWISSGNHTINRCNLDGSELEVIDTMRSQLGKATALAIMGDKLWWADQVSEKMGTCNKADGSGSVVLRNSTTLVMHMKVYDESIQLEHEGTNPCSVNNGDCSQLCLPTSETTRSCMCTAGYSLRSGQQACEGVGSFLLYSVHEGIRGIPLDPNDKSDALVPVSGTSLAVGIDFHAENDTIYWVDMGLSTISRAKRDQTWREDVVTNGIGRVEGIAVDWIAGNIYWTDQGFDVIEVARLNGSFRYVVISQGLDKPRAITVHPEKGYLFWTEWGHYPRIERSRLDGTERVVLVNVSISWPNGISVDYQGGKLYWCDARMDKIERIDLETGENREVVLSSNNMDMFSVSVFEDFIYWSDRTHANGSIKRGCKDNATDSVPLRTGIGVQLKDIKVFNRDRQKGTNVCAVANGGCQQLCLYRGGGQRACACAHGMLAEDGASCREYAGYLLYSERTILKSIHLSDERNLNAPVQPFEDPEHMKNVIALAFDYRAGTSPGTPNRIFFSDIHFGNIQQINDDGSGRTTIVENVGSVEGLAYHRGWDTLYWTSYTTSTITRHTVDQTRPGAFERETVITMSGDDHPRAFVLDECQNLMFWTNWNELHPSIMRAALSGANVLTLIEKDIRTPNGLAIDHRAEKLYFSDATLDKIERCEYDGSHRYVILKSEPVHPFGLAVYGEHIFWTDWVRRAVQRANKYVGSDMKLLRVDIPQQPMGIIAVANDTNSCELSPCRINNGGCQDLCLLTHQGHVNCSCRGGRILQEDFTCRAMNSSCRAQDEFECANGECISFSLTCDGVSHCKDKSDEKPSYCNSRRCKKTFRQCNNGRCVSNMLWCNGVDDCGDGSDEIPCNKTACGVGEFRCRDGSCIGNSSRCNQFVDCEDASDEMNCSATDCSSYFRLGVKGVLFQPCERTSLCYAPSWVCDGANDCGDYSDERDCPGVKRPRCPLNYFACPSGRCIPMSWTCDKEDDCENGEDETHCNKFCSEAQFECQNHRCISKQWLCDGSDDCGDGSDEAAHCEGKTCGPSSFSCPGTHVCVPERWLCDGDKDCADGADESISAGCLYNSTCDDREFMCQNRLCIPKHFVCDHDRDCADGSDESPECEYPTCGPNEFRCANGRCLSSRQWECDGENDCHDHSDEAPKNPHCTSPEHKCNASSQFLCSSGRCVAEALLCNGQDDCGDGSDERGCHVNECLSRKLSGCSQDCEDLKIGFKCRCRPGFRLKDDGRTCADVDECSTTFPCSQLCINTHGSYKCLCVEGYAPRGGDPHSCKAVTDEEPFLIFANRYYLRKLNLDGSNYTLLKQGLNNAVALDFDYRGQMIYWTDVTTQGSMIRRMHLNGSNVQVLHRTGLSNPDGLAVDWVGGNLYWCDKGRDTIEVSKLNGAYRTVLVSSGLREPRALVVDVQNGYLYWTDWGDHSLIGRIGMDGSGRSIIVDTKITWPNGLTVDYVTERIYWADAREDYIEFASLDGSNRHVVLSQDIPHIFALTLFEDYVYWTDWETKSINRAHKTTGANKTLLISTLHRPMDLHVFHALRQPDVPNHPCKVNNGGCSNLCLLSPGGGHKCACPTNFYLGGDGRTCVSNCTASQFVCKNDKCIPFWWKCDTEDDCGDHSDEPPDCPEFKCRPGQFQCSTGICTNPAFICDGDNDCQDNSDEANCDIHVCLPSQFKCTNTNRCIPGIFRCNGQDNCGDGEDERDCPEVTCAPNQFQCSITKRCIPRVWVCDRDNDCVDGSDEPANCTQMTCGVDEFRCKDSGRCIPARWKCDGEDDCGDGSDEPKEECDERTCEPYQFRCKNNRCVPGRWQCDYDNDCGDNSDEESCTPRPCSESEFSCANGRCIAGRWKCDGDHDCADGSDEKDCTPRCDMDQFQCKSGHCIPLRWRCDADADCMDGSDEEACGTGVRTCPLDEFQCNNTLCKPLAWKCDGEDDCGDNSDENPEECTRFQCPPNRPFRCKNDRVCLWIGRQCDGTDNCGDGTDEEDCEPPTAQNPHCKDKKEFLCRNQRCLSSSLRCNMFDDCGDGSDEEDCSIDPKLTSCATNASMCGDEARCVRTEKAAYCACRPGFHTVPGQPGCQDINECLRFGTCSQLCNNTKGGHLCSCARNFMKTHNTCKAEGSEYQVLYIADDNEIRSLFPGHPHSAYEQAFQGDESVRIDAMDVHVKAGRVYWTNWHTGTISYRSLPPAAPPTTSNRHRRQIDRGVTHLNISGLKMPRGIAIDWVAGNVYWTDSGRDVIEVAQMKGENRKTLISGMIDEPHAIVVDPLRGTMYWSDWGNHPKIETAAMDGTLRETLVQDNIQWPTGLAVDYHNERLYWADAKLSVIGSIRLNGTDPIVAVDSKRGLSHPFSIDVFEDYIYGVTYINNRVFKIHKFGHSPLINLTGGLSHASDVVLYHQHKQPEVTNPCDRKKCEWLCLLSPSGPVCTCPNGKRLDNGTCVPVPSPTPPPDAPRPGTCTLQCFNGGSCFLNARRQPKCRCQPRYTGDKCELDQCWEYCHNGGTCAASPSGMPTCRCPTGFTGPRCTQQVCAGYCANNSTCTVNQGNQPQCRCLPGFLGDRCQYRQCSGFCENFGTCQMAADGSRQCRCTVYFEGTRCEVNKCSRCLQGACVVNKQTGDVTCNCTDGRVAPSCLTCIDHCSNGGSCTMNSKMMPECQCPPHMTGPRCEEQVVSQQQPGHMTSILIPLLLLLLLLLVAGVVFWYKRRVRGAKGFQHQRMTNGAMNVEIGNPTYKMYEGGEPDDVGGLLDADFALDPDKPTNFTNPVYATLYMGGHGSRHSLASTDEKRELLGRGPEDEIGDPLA
Description: The methods of the invention may be especially useful in treating cancers having cells that express low density lipoprotein-related protein (LRP) receptor. The LRP receptor is expressed on the surface of cells, and is capable of binding to various substrates including aprotinin, β-amyloid, tissue plasminogen activator (tPA), melano-transferrin, and receptor associated peptide (RAP). The peptides described herein were designed based on the consensus kunitz-domain sequences that act as LRP receptor ligands (see, e.g., PCT Publication No. WO 2004/060403). Uptake of the conjugates including Angiopep-1 or Angiopep-2 is inhibited by LRP ligands, thus indicating involvement of LRP in this process. […] Angiopep-2 (10 or 100 μM) is similarly able to reduce uptake of the conjugates into cells (FIGS. 6A and 6B).
The results described in FIGS. 4A and 4B were obtained using an in situ rat brain perfusion. Male Sprague Dawley rats were anesthetized with […] i.p., of sodium pentobarbital (Nembutal, Abbott Laboratories, North Chicago, Ill., USA). The neck region was shaved and the common carotid artery was exposed. The external carotid artery was ligated, but the pterygopalatine artery was not occluded. A PE-60 catheter filled with heparinized 0.9% saline (100 IU/mL) was inserted into the common carotid artery upon ligation. A heating pad linked to YSI feedback controller device (Yellow Springs Instruments, Yellow Springs, Ohio, USA) was used to maintain the rat body temperature at 37° C. The PE-60 catheter was attached to a glass syringe filled with the tracer; with or without inhibitors, in a bicarbonate-buffered physiological saline (Smith Q R., Pharm Biotechnol 8:285-307, 1996) mounted on a Harvard infusion pump (Harvard Biosciences, South Natick, Mass., USA) maintained at 37° C. Dual-labeled experiments were performed for studying the brain uptake. [^14C]Sucrose was used as a vascular volume marker. Perfusion was started upon severing the heart to stop blood flow to the brain. […] The samples were weighed and counted using the gamma counter (Cobra 600) to determine the ^125I labeled drug. […]

[2] = test system: metastatic ovarian cancer; test: Prior standard chemotherapy of the ovarian cancer patient before the ANG1005 trial; format: in vivo, human; conditions: prior therapy 2007-2008
Experimental: The patient was originally diagnosed in November 2006 with ovarian cancer. […] From February 2008 to March 2008, the patient received a combination of Gemzar® (gemcitabine) and […]® (topotecan). The patient was again given a combination of Taxotere® (docetaxel) and carboplatin from March 2008 until July 2008. In November 2008, the patient was administered Doxil® (doxorubicin).

Molecule	course of patient's cancer after receiving the agent [2]	further results
Angiopep-2: peptide vector, sequence TFFYGGSRGKRNNFKTEEY		uptake of the conjugates into cells ([1]; Angiopep-2 10 or 100 μM, FIG. 6A): reduce uptake
CC(=O)O[C@@]12CO[C@@H]1C[C@H](O)[C@@]1(C)C(=O)[C@H](O)C3=C(C)[C@@H](OC(=O)[C@H](O)[C@@H](NC(=O)OC(C)(C)C)c4ccccc4)C[C@@](O)([C@@H](OC(=O)c4ccccc4)[C@H]21)C3(C)C [docetaxel]	continued to progress	
N.N.O=C([O-])C1(C(=O)[O-])CCC1.[Pt+2] [carboplatin]	continued to progress	
CC[C@@]1(O)C(=O)OCc2c1cc1n(c2=O)Cc2cc3c(CN(C)C)c(O)ccc3nc2-1 [topotecan]	continued to progress	
Nc1ccn([C@@H]2O[C@H](CO)[C@@H](O)C2(F)F)c(=O)n1 [gemcitabine]	continued to progress	
RAP: LRP ligand, receptor associated protein (RAP)		brain uptake of an Angiopep conjugate ([1]; RAP 200 nM co-perfused): reducing brain uptake
aprotinin		brain uptake of an Angiopep conjugate ([1]; aprotinin 10 μM co-perfused): reducing brain uptake
COc1cccc2c1C(=O)c1c(O)c3c(c(O)c1C2=O)C[C@@](O)(C(=O)CO)C[C@@H]3O[C@H]1C[C@H](N)[C@H](O)[C@H](C)O1 [doxorubicin]	continued to progress	
